Holding throughout (assay type): biochemical
Test [1] addresses DPP8 (Homo sapiens, UniProt Q6V1X1). The test can be described thus: DPP8 activity assay (BPS Bioscience kit). Particulars: for DPP8 activity: 100 µM, Exp #1-#5, DMSO = Ctrl. On the procedure: A DPP8 assay kit was purchased from BPS Bioscience (Cat# 800208), and the assay protocol was followed to test for inhibitory activity on DPP8. Briefly, DPP substrate 1 was diluted to make a 100 µM stock solution, and DPP8 protein was diluted in DPP assay buffer to 2 ng/µl (20 ng/reaction). For the tested compounds, 10 µl of diluted DPP8 protein, 5 µl of diluted DPP substrate 1, 84 µl of DPP assay buffer and 1 µl of inhibitor were addedinto the assay system for a total volume of 100 µl. The reaction mixtures were prepared in duplicate on a 96-well plate and incubated at room temperature for 10 min. […]

Test [2] has as its target T1, DPP9 (Homo sapiens, UniProt Q86TI2).
T1 construct: purchased BPS Bioscience 800209
Briefly: DPP9 activity assay (BPS Bioscience kit).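 As to DPP9 assay, Emission (450 nm): 20 ng DPP9 per 100 µl reaction with DPP substrate 1.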 Particulars: 100 µM, Well #1-#3; for DPP9 activity: DMSO = Ctrl.

Test [3] concerns the target DPP4 (Homo sapiens, UniProt P27487). The test can be described thus: DPP4 activity assay (DPP4 inhibitor screening assay kit, Cayman).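 As to all read-outs here: fluorescence read at excitation 360 nm and emission 460 nm after the enzyme reaction ran 30 min at 37 °C in a 96-well plate.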 Particulars: for remaining activity at 10 µM: 0.5 h, control mean 100.0. Also on record: purchased Cayman Chemical, Ann Arbor, MI, USA.

Structures are written as SMILES. Where “and” joins values, the source holds several entries; their conditions need not be identical. Identical values can stand only once. Like-named read-outs stand apart in the source and are kept apart here.

This is an account of results in PMC5428354, “Screening of a natural compound library identifies emodin, a natural compound from Rheum palmatum Linn that inhibits DPP4” (PeerJ, 2017).

Sequence of DPP4 (P27487 whole entry): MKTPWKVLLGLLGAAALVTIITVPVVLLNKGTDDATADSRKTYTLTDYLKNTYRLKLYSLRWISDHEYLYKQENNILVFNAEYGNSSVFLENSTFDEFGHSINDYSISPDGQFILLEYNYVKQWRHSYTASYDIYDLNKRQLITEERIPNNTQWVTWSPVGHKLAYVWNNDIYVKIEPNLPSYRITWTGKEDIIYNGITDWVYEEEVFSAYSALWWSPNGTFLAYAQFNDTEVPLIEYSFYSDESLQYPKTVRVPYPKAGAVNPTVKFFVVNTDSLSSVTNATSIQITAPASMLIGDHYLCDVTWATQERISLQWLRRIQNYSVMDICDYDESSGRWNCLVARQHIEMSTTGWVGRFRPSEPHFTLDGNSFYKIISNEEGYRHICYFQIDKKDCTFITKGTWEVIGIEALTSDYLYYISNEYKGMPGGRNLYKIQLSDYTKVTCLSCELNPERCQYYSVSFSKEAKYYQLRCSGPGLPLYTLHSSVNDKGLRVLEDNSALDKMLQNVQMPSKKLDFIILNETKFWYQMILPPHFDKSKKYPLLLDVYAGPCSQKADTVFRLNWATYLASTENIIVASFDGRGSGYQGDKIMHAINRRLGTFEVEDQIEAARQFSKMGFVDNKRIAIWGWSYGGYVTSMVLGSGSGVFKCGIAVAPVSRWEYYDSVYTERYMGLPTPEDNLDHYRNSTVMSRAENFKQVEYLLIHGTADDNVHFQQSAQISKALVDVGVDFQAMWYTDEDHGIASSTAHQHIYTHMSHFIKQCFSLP
T1 sequence (Q86TI2 whole entry): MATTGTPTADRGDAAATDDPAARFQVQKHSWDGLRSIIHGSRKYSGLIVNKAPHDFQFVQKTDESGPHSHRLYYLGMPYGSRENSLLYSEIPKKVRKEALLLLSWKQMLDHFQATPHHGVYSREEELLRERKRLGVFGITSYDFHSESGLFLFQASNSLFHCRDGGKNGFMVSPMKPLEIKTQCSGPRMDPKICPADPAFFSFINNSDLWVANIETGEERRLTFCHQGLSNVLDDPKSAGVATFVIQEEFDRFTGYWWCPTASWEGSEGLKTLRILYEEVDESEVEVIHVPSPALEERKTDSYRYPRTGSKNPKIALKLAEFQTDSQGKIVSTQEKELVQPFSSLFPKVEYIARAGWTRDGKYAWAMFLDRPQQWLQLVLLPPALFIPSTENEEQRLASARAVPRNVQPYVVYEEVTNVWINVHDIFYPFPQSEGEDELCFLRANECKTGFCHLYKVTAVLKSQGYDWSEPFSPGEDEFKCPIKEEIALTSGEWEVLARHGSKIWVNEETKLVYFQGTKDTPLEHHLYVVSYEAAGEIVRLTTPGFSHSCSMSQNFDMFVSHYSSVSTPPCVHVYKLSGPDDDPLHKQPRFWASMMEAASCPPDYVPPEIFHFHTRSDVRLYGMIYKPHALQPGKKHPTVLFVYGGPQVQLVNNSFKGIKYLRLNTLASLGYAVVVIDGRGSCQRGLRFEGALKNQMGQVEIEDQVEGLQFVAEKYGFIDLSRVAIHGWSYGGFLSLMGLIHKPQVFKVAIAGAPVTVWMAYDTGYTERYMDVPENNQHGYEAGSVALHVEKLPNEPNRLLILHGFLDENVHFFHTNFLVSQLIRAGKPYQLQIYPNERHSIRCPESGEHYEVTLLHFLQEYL
Sequence of DPP8 (Q6V1X1 whole entry): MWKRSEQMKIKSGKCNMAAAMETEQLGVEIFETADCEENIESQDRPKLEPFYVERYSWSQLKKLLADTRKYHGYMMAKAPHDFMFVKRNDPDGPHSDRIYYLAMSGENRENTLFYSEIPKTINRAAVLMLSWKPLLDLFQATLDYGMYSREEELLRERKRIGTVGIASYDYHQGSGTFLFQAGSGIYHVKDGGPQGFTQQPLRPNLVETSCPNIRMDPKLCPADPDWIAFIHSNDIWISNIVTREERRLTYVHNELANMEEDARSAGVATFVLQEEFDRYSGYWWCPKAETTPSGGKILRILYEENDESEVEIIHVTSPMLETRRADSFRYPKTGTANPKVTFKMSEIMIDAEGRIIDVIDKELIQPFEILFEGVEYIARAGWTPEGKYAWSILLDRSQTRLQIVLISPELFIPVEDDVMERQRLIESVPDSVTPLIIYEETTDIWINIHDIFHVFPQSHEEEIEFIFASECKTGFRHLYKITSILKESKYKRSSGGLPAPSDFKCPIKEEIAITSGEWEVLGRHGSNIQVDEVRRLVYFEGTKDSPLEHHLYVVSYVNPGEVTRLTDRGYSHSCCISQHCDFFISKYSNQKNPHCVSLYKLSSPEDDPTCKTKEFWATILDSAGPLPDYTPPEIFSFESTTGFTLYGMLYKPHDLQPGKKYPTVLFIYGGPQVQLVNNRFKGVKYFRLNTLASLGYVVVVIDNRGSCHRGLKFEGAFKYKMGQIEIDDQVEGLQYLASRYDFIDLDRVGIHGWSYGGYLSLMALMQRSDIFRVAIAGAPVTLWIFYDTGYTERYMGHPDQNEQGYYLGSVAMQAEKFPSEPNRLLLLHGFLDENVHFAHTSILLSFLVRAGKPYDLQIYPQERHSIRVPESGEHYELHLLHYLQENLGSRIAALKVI

For the compound `O=C(O)c1cc(O)c2c(c1)C(=O)c1cccc(O)c1C2=O` [Rhein], in test [1], the IC50 is > 100 µM; the DPP8 activity is 54.9 % of Ctrl and 47.9 % of Ctrl and 41.4 % of Ctrl and 44.7 % of Ctrl and 72.6 % of Ctrl. For the same compound, the “activity against DPP8” value in test [1] (tested at 100 µM) is “very weak activity”. Besides, in test [2], the “DPP9 assay, Emission (450 nm)” value is 41706 and 44766 and 43536; the DPP9 activity was 85.6 % of Ctrl and 91.9 % of Ctrl and 89.4 % of Ctrl. The affinity in test [3] (DPP4, means ± SE), expressed as Ki, was 3.42 ± 0.53 µM. Moreover, the IC50 in test [3] (in vitro, means ± SE, read-out: IC50 of DPP4 Inhibition) was found to be 23.1 ± 3.57 µM.
Take `COc1cc(O)c2c(c1)C(=O)c1cc(C)cc(O)c1C2=O` [Rheochrysidin]: the DPP8 activity in test [1] was 78.2 % of Ctrl and 100.6 % of Ctrl and 89.5 % of Ctrl and 95.0 % of Ctrl and 106.4 % of Ctrl. For the same compound, the “DPP9 assay, Emission (450 nm)” value in test [2] is 49845 and 45873 and 51642. Further, the DPP9 activity in test [2] was 102.3 % of Ctrl and 94.2 % of Ctrl and 106.0 % of Ctrl. Further, the remaining activity at 10 µM turned out to be 44.7% in test [3] (Figure 1A raw data, read-out: DPP4 activity in library screen, Exp 1); 52.2% in test [3] (Figure 1A raw data, read-out: DPP4 activity in library screen, Exp 2); 53.9% in test [3] (Figure 1A raw data, read-out: DPP4 activity in library screen, Exp 3); 50.3% in test [3] (mean of Exp 1-3, read-out: DPP4 activity in library screen, Mean).

Broadly, the IC50 is the midpoint of a concentration-inhibition curve. What is called Ki is a dissociation constant, usually derived from enzyme kinetics or from competition with a known ligand. Higher therefore signals a looser hold on the target.
